Laboratory results published in patent publication US20250213532A1, “5-METHOXY-N,N-[…][…] THE TREATMENT OF BIPOLAR DISORDER” (GH RESEARCH IRELAND LIMITED, priority 2022, published 2025).

Legend:
[1] = test system: patients with clinically diagnosed postpartum depression (PPD); assay: Clinical trial of inhaled 5-MeO-DMT in postpartum depression: BPRS; type: in vivo, human; conditions: one PPD patient; for BPRS Blunted affect improvement / BPRS Blunted affect score / BPRS Conceptual disorganization improvement / BPRS Conceptual disorganization score / BPRS Disorientation improvement / BPRS Disorientation score / BPRS Grandiosity improvement / BPRS Grandiosity score / BPRS Hallucinatory behaviour improvement / BPRS Hallucinatory behaviour score / BPRS Hostility improvement / BPRS Hostility score / BPRS Mannerisms and Posturing improvement / BPRS Mannerisms and Posturing score / BPRS Motor retardation improvement / BPRS Motor retardation score / BPRS Suspiciousness improvement / BPRS Suspiciousness score / BPRS Uncooperativeness improvement / BPRS Uncooperativeness score / BPRS Unusual Thought Content improvement / BPRS Unusual Thought Content score: baseline 1; for BPRS Excitement improvement / BPRS Excitement score: baseline 2; for BPRS Emotional withdrawal improvement / BPRS Emotional withdrawal score: baseline 5; for BPRS Anxiety improvement / BPRS Anxiety score: baseline 7
From the text: (§1) The patient completed all planned visit days.

[2] = test system: patients with clinically diagnosed postpartum depression (PPD); assay: Clinical trial in postpartum depression: safety and tolerability; type: in vivo, human; conditions: one PPD patient
From the text: as §1

[3] = test system: Escherichia coli WP2 uvrA pKM101; assay: Bacterial mutation test, Escherichia coli; type: cell-based; conditions: up to 5000 pg/plate; absence and presence of rat liver S-9
From the text: These conditions included treatments at concentrations up to […] (the maximum recommended concentration according to current regulatory guidelines), in the absence and in the presence of a rat liver metabolic activation system (S-9).

[4] = Pharmacokinetics after single inhaled dose (LC-MS/MS); type: in vivo, human
Method: Blood samples were obtained at 1; 2; 4; 7; 10; 15; 20; 30; 45 min and 1; 1.5; 2; 3; 4 hours after administration.
PK parameters were generated by algebraic analysis of the concentration versus time plots for each individual. The analysis was carried out using the software Phoenix WinNonlin 6.3.

COc1ccc2[nH]cc(CCN(C)C)c2c1 [5-MeO-DMT]
BPRS Blunted affect improvement ([1]; Day 1): 0
BPRS Blunted affect score ([1]; Day 1): 1
BPRS Conceptual disorganization improvement ([1]; Day 1): 0
BPRS Conceptual disorganization score ([1]; Day 1): 1
BPRS Disorientation improvement ([1]; Day 1): 0
BPRS Disorientation score ([1]; Day 1): 1
BPRS Grandiosity improvement ([1]; Day 1): 0
BPRS Grandiosity score ([1]; Day 1): 1
BPRS Hallucinatory behaviour improvement ([1]; Day 1): 0
BPRS Hallucinatory behaviour score ([1]; Day 1): 1
BPRS Hostility improvement ([1]; Day 1): 0
BPRS Hostility score ([1]; Day 1): 1
BPRS Mannerisms and Posturing improvement ([1]; Day 1): 0
BPRS Mannerisms and Posturing score ([1]; Day 1): 1
BPRS Motor retardation improvement ([1]; Day 1): 0
BPRS Motor retardation score ([1]; Day 1): 1
BPRS Suspiciousness improvement ([1]; Day 1): 0
BPRS Suspiciousness score ([1]; Day 1): 1
BPRS Uncooperativeness improvement ([1]; Day 1): 0
BPRS Uncooperativeness score ([1]; Day 1): 1
BPRS Unusual Thought Content improvement ([1]; Day 1): 0
BPRS Unusual Thought Content score ([1]; Day 1): 1
BPRS Excitement improvement ([1]; Day 1): 1
BPRS Excitement score ([1]; Day 1): 1
BPRS Emotional withdrawal improvement ([1]; Day 1): 4
BPRS Emotional withdrawal score ([1]; Day 1): 1
BPRS Depressive Mood improvement ([1]; Day 1, baseline 6): 5
BPRS Depressive Mood score ([1]; Day 1, baseline 6): 1
BPRS Guilt feelings improvement ([1]; Day 1, baseline 6): 5
BPRS Guilt feelings score ([1]; Day 1, baseline 6): 1
BPRS Somatic Concern improvement ([1]; Day 1, baseline 6): 5
BPRS Somatic Concern score ([1]; Day 1, baseline 6): 1
BPRS Tension score ([1]; Day 1, baseline 6): 1
BPRS Anxiety improvement ([1]; Day 1): 6
BPRS Anxiety score ([1]; Day 1): 1
BPRS Blunted affect improvement ([1]; Day 7): 0
BPRS Blunted affect score ([1]; Day 7): 1
BPRS Conceptual disorganization improvement ([1]; Day 7): 0
BPRS Conceptual disorganization score ([1]; Day 7): 1
BPRS Disorientation improvement ([1]; Day 7): 0
BPRS Disorientation score ([1]; Day 7): 1
BPRS Grandiosity improvement ([1]; Day 7): 0
BPRS Grandiosity score ([1]; Day 7): 1
BPRS Hallucinatory behaviour improvement ([1]; Day 7): 0
BPRS Hallucinatory behaviour score ([1]; Day 7): 1
BPRS Hostility improvement ([1]; Day 7): 0
BPRS Hostility score ([1]; Day 7): 1
BPRS Mannerisms and Posturing improvement ([1]; Day 7): 0
BPRS Mannerisms and Posturing score ([1]; Day 7): 1
BPRS Motor retardation improvement ([1]; Day 7): 0
BPRS Motor retardation score ([1]; Day 7): 1
BPRS Suspiciousness improvement ([1]; Day 7): 0
BPRS Suspiciousness score ([1]; Day 7): 1
BPRS Uncooperativeness improvement ([1]; Day 7): 0
BPRS Uncooperativeness score ([1]; Day 7): 1
BPRS Unusual Thought Content improvement ([1]; Day 7): 0
BPRS Unusual Thought Content score ([1]; Day 7): 1
BPRS Excitement improvement ([1]; Day 7): 1
BPRS Excitement score ([1]; Day 7): 1
BPRS Emotional withdrawal improvement ([1]; Day 7): 4
BPRS Emotional withdrawal score ([1]; Day 7): 1
BPRS Depressive Mood improvement ([1]; Day 7, baseline 6): 5
BPRS Depressive Mood score ([1]; Day 7, baseline 6): 1
BPRS Guilt feelings improvement ([1]; Day 7, baseline 6): 5
BPRS Guilt feelings score ([1]; Day 7, baseline 6): 1
BPRS Somatic Concern improvement ([1]; Day 7, baseline 6): 5
BPRS Somatic Concern score ([1]; Day 7, baseline 6): 1
BPRS Tension improvement ([1]; Day 7, baseline 6): 5
BPRS Tension score ([1]; Day 7, baseline 6): 1
BPRS Anxiety improvement ([1]; Day 7): 6
BPRS Anxiety score ([1]; Day 7): 1
BPRS Blunted affect improvement ([1]; Discharge): 0
BPRS Blunted affect score ([1]; Discharge): 1
BPRS Conceptual disorganization improvement ([1]; Discharge): 0
BPRS Conceptual disorganization score ([1]; Discharge): 1
BPRS Disorientation improvement ([1]; Discharge): 0
BPRS Disorientation score ([1]; Discharge): 1
BPRS Grandiosity improvement ([1]; Discharge): 0
BPRS Grandiosity score ([1]; Discharge): 1
BPRS Hallucinatory behaviour improvement ([1]; Discharge): 0
BPRS Hallucinatory behaviour score ([1]; Discharge): 1
BPRS Hostility improvement ([1]; Discharge): 0
BPRS Hostility score ([1]; Discharge): 1
BPRS Mannerisms and Posturing improvement ([1]; Discharge): 0
BPRS Mannerisms and Posturing score ([1]; Discharge): 1
BPRS Motor retardation improvement ([1]; Discharge): 0
BPRS Motor retardation score ([1]; Discharge): 1
BPRS Suspiciousness improvement ([1]; Discharge): 0
BPRS Suspiciousness score ([1]; Discharge): 1
BPRS Uncooperativeness improvement ([1]; Discharge): 0
BPRS Uncooperativeness score ([1]; Discharge): 1
BPRS Unusual Thought Content improvement ([1]; Discharge): 0
BPRS Unusual Thought Content score ([1]; Discharge): 1
BPRS Excitement improvement ([1]; Discharge): 1
BPRS Excitement score ([1]; Discharge): 1
BPRS Emotional withdrawal improvement ([1]; Discharge): 4
BPRS Emotional withdrawal score ([1]; Discharge): 1
BPRS Depressive Mood improvement ([1]; Discharge, baseline 6): 5
BPRS Depressive Mood score ([1]; Discharge, baseline 6): 1
BPRS Guilt feelings improvement ([1]; Discharge, baseline 6): 5
BPRS Guilt feelings score ([1]; Discharge, baseline 6): 1
BPRS Somatic Concern improvement ([1]; Discharge, baseline 6): 5
BPRS Somatic Concern score ([1]; Discharge, baseline 6): 1
BPRS Tension score ([1]; Discharge, baseline 6): 1
BPRS Anxiety improvement ([1]; Discharge): 6
BPRS Anxiety score ([1]; Discharge): 1
Tolerability of inhalation procedure [2]: well tolerated with no inhalation-related adverse events
Adverse events (cramping left abdominal pain and headache) ([2]; Day 0): mild, short-lasting and resolved spontaneously
ECG, safety laboratory analyses, CADSS ([2]; ECG 3 hours, laboratory 7 days, CADSS 3 hours, 1 day, 7 days): unremarkable
Induction of mutation [3]: did not induce mutation
Pharmacokinetics under uptitration dosing schemes vs single dose ([4]; dosing schemes relying on uptitration): Substantially similar results
Accumulation upon repeated administration ([4]; repeated administration within a time frame of 1 to 4 hours): No accumulation
